Assay results reported in patent US10266526B2, “Substituted 1,2,3-triazoles as SMYD inhibitors for treating cancer” (EPIZYME, INC., priority 2014, dated 2019).

Target: SMYD2 (Homo sapiens (Human), UniProt Q9NRG4)
Assay: SMYD2 biochemical assay (SMYD2 enzyme assay on peptide substrate, 3H-SAM Flashplate)
Details: read-out: SMYD2 Biochem IC50; IC50 values are an average of n = 1 to n = 50

Sequence of SMYD2 (Q9NRG4 whole entry): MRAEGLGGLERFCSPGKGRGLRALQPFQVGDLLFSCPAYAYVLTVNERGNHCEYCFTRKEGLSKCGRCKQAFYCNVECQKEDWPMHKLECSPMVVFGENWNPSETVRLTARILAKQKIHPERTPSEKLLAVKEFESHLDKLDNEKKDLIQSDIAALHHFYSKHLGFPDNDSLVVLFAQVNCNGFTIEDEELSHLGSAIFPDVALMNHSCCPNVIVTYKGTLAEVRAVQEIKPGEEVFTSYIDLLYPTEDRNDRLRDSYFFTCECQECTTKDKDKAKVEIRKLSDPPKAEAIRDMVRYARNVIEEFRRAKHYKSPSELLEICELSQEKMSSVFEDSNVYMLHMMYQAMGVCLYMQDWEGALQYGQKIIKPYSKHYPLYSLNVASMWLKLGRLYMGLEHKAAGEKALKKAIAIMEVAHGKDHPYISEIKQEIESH

| IC50 [nM] | SMILES |
| --- | --- |
| 4600 | CC(C)N1CC(NC(=O)c2cn(C3CC3)cn2)C1 [compound 919, 1-cyclopropyl-N-(1-isopropylazetidin-3-yl)-1H-imidazole-4-carboxamide] |
| 2620 | O=C(NC1CN(Cc2cn(CCc3ccccc3)cn2)C1)c1cn(C2CC2)nn1 [compound 782, 1-cyclopropyl-N-(1-{[1-(2-phenylethyl)-1H-imidazol-4-yl]methyl}azetidin-3-yl)-1H-1,2,3-triazole-4-carboxamide] |
| 2310 | O=C(NC1CN(Cc2cccc(OCCO)c2)C1)c1cn(C2CC2)nn1 [compound 734, 1-cyclopropyl-N-(1-{[3-(2-hydroxyethoxy)phenyl]methyl}azetidin-3-yl)-1H-1,2,3-triazole-4-carboxamide] |
| > 50000 | C[C@H](c1ccccc1)N1CC(NC(=O)c2ncc(C3CC3)[nH]2)C1 [compound 915, 5-cyclopropyl-N-{1-[(1R)-1-phenylethyl]azetidin-3-yl}-1H-imidazole-2-carboxamide] |
| 1390 | O=C(NC1CN(Cc2ccc(C(O)Cc3ccccc3)cc2)C1)c1cn(C2CC2)nn1 (centres unmarked) [compound 983, 1-cyclopropyl-N-(1-(4-(1-hydroxy-2-phenylethyl)benzyl)azetidin-3-yl)-1H-1,2,3-triazole-4-carboxamide] |
| 1070 | CC(c1ccc(Oc2ccccc2)cc1)N1CC(NC(=O)c2cn(C3CC3)nn2)C1 (centres unmarked) [compound 739, 1-cyclopropyl-N-{1-[1-(4-phenoxyphenyl)ethyl]azetidin-3-yl}-1H-1,2,3-triazole-4-carboxamide] |
| 650 | CC(c1ccc(CNc2ccccc2)cc1)N1CC(NC(=O)c2cn(C3CC3)nn2)C1 (centres unmarked) [compound 922, 1-cyclopropyl-N-(1-(1-(4-((phenylamino)methyl)phenyl)ethyl)azetidin-3-yl)-1H-1,2,3-triazole-4-carboxamide] |
| 940 | Cn1cc(CN2CC(NC(=O)c3cc(C4CC4)cnn3)C2)c(Cl)n1 [compound 833, N-{1-[(3-chloro-1-methyl-1H-pyrazol-4-yl)methyl]azetidin-3-yl}-5-cyclopropylpyridazine-3-carboxamide] |
| > 50000 | CNC1CCCC(C(=O)Nc2cc(O)c3c(c2)OCC(=O)N3)C1 (centres unmarked) [compound 820, N-(5-hydroxy-3-oxo-3,4-dihydro-2H-1,4-benzoxazin-7-yl)-3-(methylamino)cyclohexane-1-carboxamide] |
| > 50000 | CC(c1ccc2[nH]nc(-c3ccccc3Cl)c2c1)N1CC(NC(=O)c2cn(C3CC3)nn2)C1 (centres unmarked) [compound 920, N-(1-(1-(3-(2-chlorophenyl)-1H-indazol-5-yl)ethyl)azetidin-3-yl)-1-cyclopropyl-1H-1,2,3-triazole-4-carboxamide] |
| > 50000 | CS(=O)(=O)CC(c1ccccc1)N1CC(NC(=O)c2cn(C3CC3)nn2)C1 (centres unmarked) [compound 773, 1-cyclopropyl-N-[1-(2-methanesulfonyl-1-phenylethyl)azetidin-3-yl]-1H-1,2,3-triazole-4-carboxamide] |
| 785 | COc1ccc(C(C)N2CC(NC(=O)c3cn(C4CC4)nn3)C2)cc1 (centres unmarked) [compound 821, 1-cyclopropyl-N-{1-[1-(4-methoxyphenyl)ethyl]azetidin-3-yl}-1H-1,2,3-triazole-4-carboxamide] |
| 130 | COc1ccc(Cl)c(C(C)N2CC(NC(=O)c3cn(C4CC4)nn3)C2)c1 (centres unmarked) [compound 938, N-(1-(1-(2-chloro-5-methoxyphenyl)ethyl)azetidin-3-yl)-1-cyclopropyl-1H-1,2,3-triazole-4-carboxamide] |
| 159 | COc1ccc(COc2ccc(C(C)N3CC(NC(=O)c4cn(C5CC5)nn4)C3)cc2)cc1 (centres unmarked) [compound 855, 1-cyclopropyl-N-[1-(1-{4-[(4-methoxyphenyl)methoxy]phenyl}ethyl)azetidin-3-yl]-1H-1,2,3-triazole-4-carboxamide] |
| 360 | O=C(NC1CN(Cc2cnn(CC3CCCCC3)c2)C1)c1cn(C2CC2)nn1 [compound 948, N-(1-((1-(cyclohexylmethyl)-1H-pyrazol-4-yl)methyl)azetidin-3-yl)-1-cyclopropyl-1H-1,2,3-triazole-4-carboxamide] |
| 121 | COc1cccc(C(C)N2CC(NC(=O)c3cc(C4CC4)cnn3)C2)c1OC (centres unmarked) [compound 861, 5-cyclopropyl-N-{1-[1-(2,3-dimethoxyphenyl)ethyl]azetidin-3-yl}pyridazine-3-carboxamide] |
| 3580 | COCCOc1cccc(C(C)N2CC(NC(=O)c3cn(C4CC4)nn3)C2)c1 (centres unmarked) [compound 702, 1-cyclopropyl-N-(1-{1-[3-(2-methoxyethoxy)phenyl]ethyl}azetidin-3-yl)-1H-1,2,3-triazole-4-carboxamide] |
| 1680 | COc1cccc(OC)c1C(C)N1CC(NC(=O)c2cn(C3CC3)nn2)C1 (centres unmarked) [compound 768, 1-cyclopropyl-N-{1-[1-(2,6-dimethoxyphenyl)ethyl]azetidin-3-yl}-1H-1,2,3-triazole-4-carboxamide] |
| 2470 | CCC(c1ccccn1)N1CC(NC(=O)c2cn(C3CC3)nn2)C1 (centres unmarked) [compound 791, 1-cyclopropyl-N-{1-[1-(pyridin-2-yl)propyl]azetidin-3-yl}-1H-1,2,3-triazole-4-carboxamide] |

| IC50 [nM] | SMILES |
| --- | --- |
| 4270 | O=C(NC1CN(C(CO)c2ccccc2)C1)c1cn(C2CC2)nn1 (centres unmarked) [compound 674, 1-cyclopropyl-N-[1-(2-hydroxy-1-phenylethyl)azetidin-3-yl]-1H-1,2,3-triazole-4-carboxamide] |
| 22 | O=C(NC1CN(Cc2cnn(Cc3ccc(F)cc3)c2)C1)c1cn(C2CC2)nn1 [compound 951, 1-cyclopropyl-N-(1-((1-(4-fluorobenzyl)-1H-pyrazol-4-yl)methyl)azetidin-3-yl)-1H-1,2,3-triazole-4-carboxamide] |
| 4530 | O=C(NC1CN(CCO)C1)c1cn(C2CC2)nn1 [compound 670, 1-cyclopropyl-N-[1-(2-hydroxyethyl)azetidin-3-yl]-1H-1,2,3-triazole-4-carboxamide] |
| 755 | CC(c1ccc(N2CCOCC2)cc1)N1CC(NC(=O)c2cn(C3CC3)nn2)C1 (centres unmarked) [compound 728, 1-cyclopropyl-N-(1-{1-[4-(morpholin-4-yl)phenyl]ethyl}azetidin-3-yl)-1H-1,2,3-triazole-4-carboxamide] |
| 882 | O=C(NC1CN(Cc2ccc(O)cc2)C1)c1cn(C2CC2)nn1 [compound 824, 1-cyclopropyl-N-{1-[(4-hydroxyphenyl)methyl]azetidin-3-yl}-1H-1,2,3-triazole-4-carboxamide] |
| 496 | O=C(NC1CN(Cc2cn(CCc3ccccc3)cn2)C1)c1cc(C2CC2)cnn1 [compound 838, 5-cyclopropyl-N-(1-{[1-(2-phenylethyl)-1H-imidazol-4-yl]methyl}azetidin-3-yl)pyridazine-3-carboxamide] |
| 2040 | CNCCOc1cccc(C(C)N2CC(NC(=O)c3cn(C4CC4)nn3)C2)c1 (centres unmarked) [compound 705, 1-cyclopropyl-N-[1-(1-{3-[2-(methylamino)ethoxy]phenyl}ethyl)azetidin-3-yl]-1H-1,2,3-triazole-4-carboxamide] |
| 965 | COc1cc(OCc2ccccc2)ccc1C(C)N1CC(NC(=O)c2cn(C3CC3)nn2)C1 (centres unmarked) [compound 800, N-(1-{1-[4-(benzyloxy)-2-methoxyphenyl]ethyl}azetidin-3-yl)-1-cyclopropyl-1H-1,2,3-triazole-4-carboxamide] |
| 72 | O=C(NC1CN(Cc2cnn(Cc3ccccc3)c2)C1)c1nnc(C2CC2)s1 [compound 1007, N-(1-((1-benzyl-1H-pyrazol-4-yl)methyl)azetidin-3-yl)-5-cyclopropyl-1,3,4-thiadiazole-2-carboxamide] |
| 1550 | O=C(NC1CN(CCc2ccccc2)C1)c1cn(C2CC2)nn1 [compound 673, 1-cyclopropyl-N-[1-(2-phenylethyl)azetidin-3-yl]-1H-1,2,3-triazole-4-carboxamide] |
| 5100 | CC(c1cc(Cl)ccc1OC(F)F)N1CC(NC(=O)c2cn(C3CC3)nn2)C1 (centres unmarked) [compound 970, N-(1-(1-(5-chloro-2-(difluoromethoxy)phenyl)ethyl)azetidin-3-yl)-1-cyclopropyl-1H-1,2,3-triazole-4-carboxamide] |
| 2850 | CC(c1c(F)cccc1F)N1CC(NC(=O)c2cn(C3CC3)nn2)C1 (centres unmarked) [compound 742, 1-cyclopropyl-N-{1-[1-(2,6-difluorophenyl)ethyl]azetidin-3-yl}-1H-1,2,3-triazole-4-carboxamide] |
| 4210 | O=C(NC1CN(Cc2ccccc2)C1)c1cn(C2CC2)nn1 [compound 671, N-(1-benzylazetidin-3-yl)-1-cyclopropyl-1H-1,2,3-triazole-4-carboxamide] |
| 30500 | O=C(NC1CN(C2(c3ccccc3)CC2)C1)c1cn(C2CC2)nn1 [compound 755, 1-cyclopropyl-N-[1-(1-phenylcyclopropyl)azetidin-3-yl]-1H-1,2,3-triazole-4-carboxamide] |
| 713 | CC(c1ccc(OCC(=O)N2CCOCC2)cc1)N1CC(NC(=O)c2cn(C3CC3)nn2)C1 (centres unmarked) [compound 829, 1-cyclopropyl-N-[1-(1-(4-[2-(morpholin-4-yl)-2-oxoethoxy]phenyl}ethyl)azetidin-3-yl]-1H-1,2,3-triazole-4-carboxamide] |
| 2700 | COc1ccc(C(C)N2CC(NC(=O)c3cn(C4CC4)nn3)C2)nc1 (centres unmarked) [compound 923, 1-cyclopropyl-N-(1-(1-(5-methoxypyridin-2-yl)ethyl)azetidin-3-yl)-1H-1,2,3-triazole-4-carboxamide] |
| 1980 | CC(c1ccc(OCCN(C)C)cc1)N1CC(NC(=O)c2cn(C3CC3)nn2)C1 (centres unmarked) [compound 857, 1-cyclopropyl-N-[1-(1-{4-[2-(dimethylamino)ethoxy]phenyl}ethyl)azetidin-3-yl]-1H-1,2,3-triazole-4-carboxamide] |
| 345 | COc1c(OCCO)cccc1C(C)N1CC(NC(=O)c2cn(C3CC3)nn2)C1 (centres unmarked) [compound 776, 1-cyclopropyl-N-(1-{1-[3-(2-hydroxyethoxy)-2-methoxyphenyl]ethyl}azetidin-3-yl)-1H-1,2,3-triazole-4-carboxamide] |
| > 50000 | CC(NC(=O)c1cn(C2CC2)nn1)C1CCCCN1C (centres unmarked) [compound 979, 1-cyclopropyl-N-(1-(1-methylpiperidin-2-yl)ethyl)-1H-1,2,3-triazole-4-carboxamide] |
